According to ChEMBL document CHEMBL1201862, “PubChem BioAssay data set” (2004):
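Interpolation was linear, between the two tested concentrations surrounding the appropriate level; five concentrations were tested over 48 hours in 96-well plates. Abbreviation: GI50, concentration required for 50% inhibition of growth.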 Activity calls are given as the source filed them. No stated cut-off is given here; in the data, active = GI50 up to about 1.1 µM and inactive = higher. Where a SMILES comes first, the peptide text is derived from it. [ ]: non-standard residue; d: D form. The star is where a group is joined. ξ: configuration not given here. X4 = COc1ccc(C(N*)c2ccc(OC)cc2)cc1; NMeF = CN[C@@H](Cc1ccccc1)C(=O)O; NMeD = CN[C@@H](CC(=O)O)C(=O)O; NMeV = CN[C@H](C(=O)O)C(C)C; ξNMeV = CNC(C(=O)O)C(C)C; Boc = CC(C)(C)OC(=O)*; ξNMeA = CNC(C)C(=O)O; ξV = CC(C)C(N)C(=O)O

Experiments:
Assay in all cases: DTP human tumour cell line panel, 48 h
RXF 631 = system: RXF 631
HOP-18 = system: HOP-18
DLD-1 = system: DLD-1
XF498 = system: XF498
KM-20L2 = system: KM-20L2
M19-MEL = system: M19-MEL
SNB-78 = system: SNB-78
LXFL 529 = system: LXFL 529
DMS-114 = system: DMS-114

## CC(C)(C)c1cc(C(OCCl)(C(F)(F)F)C(F)(F)F)c2c(c1)C(C(F)(F)F)(C(F)(F)F)OC21c2ccccc2C(=O)c2ccccc21
RXF 631
  GI50: > 100 µM (inactive)
HOP-18
  GI50: > 100 µM (inactive)
DLD-1
  GI50: > 100 µM (inactive)
XF498
  GI50: 34 µM (inactive)
KM-20L2
  GI50: > 100 µM (inactive)
M19-MEL
  GI50: > 100 µM (inactive)
SNB-78
  GI50: > 100 µM (inactive)
LXFL 529
  GI50: > 100 µM (inactive)
DMS-114
  GI50: > 100 µM (inactive)

## CCO/C(CCn1[nH]c(=O)c(Cl)c(Cl)c1=O)=N\NC(=O)C(=O)NN
RXF 631
  GI50: > 100 µM (inactive)
HOP-18
  GI50: > 100 µM (inactive)
DLD-1
  GI50: > 100 µM (inactive)
XF498
  GI50: > 100 µM (inactive)
KM-20L2
  GI50: > 100 µM (inactive)
M19-MEL
  GI50: > 100 µM (inactive)
LXFL 529
  GI50: > 100 µM (inactive)
DMS-114
  GI50: > 100 µM (inactive)

## COc1ccc(C2[C@H]3C(=O)N(c4ccc(Cc5ccc(N6C(=O)[C@@H]7ON(c8ccccc8)C(c8ccc(OC)cc8)[C@@H]7C6=O)cc5)cc4)C(=O)[C@H]3ON2c2ccccc2)cc1 (stereo not given in full)
HOP-18
  GI50: > 100 µM (inactive)
DLD-1
  GI50: > 100 µM (inactive)
KM-20L2
  GI50: > 100 µM (inactive)
M19-MEL
  GI50: > 100 µM (inactive)
SNB-78
  GI50: > 100 µM (inactive)
LXFL 529
  GI50: > 100 µM (inactive)

## CC1=NN(C(=O)c2ccccc2O)C(=O)/C1=C/c1ccc([N+](=O)[O-])cc1
DLD-1
  GI50: 0.0643 µM (active)
XF498
  GI50: 0.664 µM (active)
KM-20L2
  GI50: 7.96 µM (inactive)
M19-MEL
  GI50: 2.3 µM (inactive)
SNB-78
  GI50: 0.0861 µM (active)
LXFL 529
  GI50: 0.0586 µM (active)
DMS-114
  GI50: 0.0875 µM (active)

## CCOC(=O)/C(=C\c1ccc[nH]1)C(=O)c1ccccc1
RXF 631
  GI50: > 100 µM (inactive)
HOP-18
  GI50: 78.9 µM (inactive)
DLD-1
  GI50: > 100 µM (inactive)
XF498
  GI50: > 100 µM (inactive)
KM-20L2
  GI50: > 100 µM (inactive)
M19-MEL
  GI50: > 100 µM (inactive)
SNB-78
  GI50: > 100 µM (inactive)
LXFL 529
  GI50: > 100 µM (inactive)
DMS-114
  GI50: 34.3 µM (inactive)

## O=C(/C=C/c1ccccc1Cl)c1ccc(Cl)cc1Cl
RXF 631
  GI50: 19 µM (inactive)
HOP-18
  GI50: 17 µM (inactive)
DLD-1
  GI50: 17.3 µM (inactive)
KM-20L2
  GI50: 15.1 µM (inactive)
M19-MEL
  GI50: 18 µM (inactive)
SNB-78
  GI50: 19.1 µM (inactive)
LXFL 529
  GI50: 16.2 µM (inactive)
DMS-114
  GI50: 11.8 µM (inactive)

## O=S(=O)(c1ccccc1)C1(C2(S(=O)(=O)c3ccccc3)CCN=N2)CCN=N1 (stereo not given)
DLD-1
  GI50: > 100 µM (inactive)
XF498
  GI50: > 100 µM (inactive)
M19-MEL
  GI50: > 100 µM (inactive)
LXFL 529
  GI50: > 100 µM (inactive)
DMS-114
  GI50: > 100 µM (inactive)

## CCOC(=O)NC(=O)c1cn(CCN2CCN(c3ncnc4[nH]cnc34)CC2)c(=O)[nH]c1=O
RXF 631
  GI50: > 100 µM (inactive)
HOP-18
  GI50: > 100 µM (inactive)
DLD-1
  GI50: > 100 µM (inactive)
XF498
  GI50: > 100 µM (inactive)
KM-20L2
  GI50: > 100 µM (inactive)
M19-MEL
  GI50: > 100 µM (inactive)
LXFL 529
  GI50: > 100 µM (inactive)
DMS-114
  GI50: > 100 µM (inactive)

## c1ccc([P+](CCC[P+](c2ccccc2)(c2ccccc2)c2ccccc2)(c2ccccc2)c2ccccc2)cc1
RXF 631
  GI50: > 100 µM (inactive)
HOP-18
  GI50: 54.7 µM (inactive)
DLD-1
  GI50: 56.6 µM (inactive)
XF498
  GI50: 23.7 µM (inactive)
KM-20L2
  GI50: 33.5 µM (inactive)
M19-MEL
  GI50: 19.9 µM (inactive)
SNB-78
  GI50: 52.8 µM (inactive)
LXFL 529
  GI50: 11.3 µM (inactive)
DMS-114
  GI50: 16.5 µM (inactive)

## Cc1cc2c(C)nn(Cc3ccccc3)c2c(C(N)=O)c1C
DLD-1
  GI50: > 100 µM (inactive)
XF498
  GI50: > 100 µM (inactive)
KM-20L2
  GI50: > 100 µM (inactive)
M19-MEL
  GI50: > 100 µM (inactive)
SNB-78
  GI50: > 100 µM (inactive)
LXFL 529
  GI50: > 100 µM (inactive)
DMS-114
  GI50: > 100 µM (inactive)

## C/C(=N\NC(=N)N)C(CN1CCCCC1)C(c1ccccc1)c1c(O)c2ccccc2oc1=O (stereo not given)
RXF 631
  GI50: > 100 µM (inactive)
DLD-1
  GI50: > 100 µM (inactive)
XF498
  GI50: > 100 µM (inactive)
KM-20L2
  GI50: > 100 µM (inactive)
M19-MEL
  GI50: > 100 µM (inactive)
LXFL 529
  GI50: > 100 µM (inactive)
DMS-114
  GI50: > 100 µM (inactive)

## Cc1c(CNc2ccc(C(=O)NC(CC(=O)O)C(=O)O)cc2)ccc2nc(N)nc(N)c12 (stereo not given)
HOP-18
  GI50: 0.867 µM (active)
DLD-1
  GI50: < 0.01 µM (active)
XF498
  GI50: 68.1 µM (inactive)
M19-MEL
  GI50: 0.122 µM (active)
SNB-78
  GI50: > 100 µM (inactive)
LXFL 529
  GI50: < 0.01 µM (active)
DMS-114
  GI50: < 0.01 µM (active)

## C[N+](C)(C)CC(=O)N/N=C(/Cc1nc2c3c(ccc2nc1O)C(=O)c1ccccc1C3=O)C(=O)Nc1ccc(Cl)c(Cl)c1
RXF 631
  GI50: 76.6 µM (inactive)
DLD-1
  GI50: 17.9 µM (inactive)
KM-20L2
  GI50: > 100 µM (inactive)
M19-MEL
  GI50: 38.2 µM (inactive)
DMS-114
  GI50: 27 µM (inactive)

## Cc1cc(C)nc(NS(=O)(=O)c2ccc(Nc3c4ccc(Cl)cc4nc4c(C(=O)Nc5ccc(S(=O)(=O)N=C(N)N)cc5)cccc34)cc2)n1
DLD-1
  GI50: > 100 µM (inactive)
XF498
  GI50: > 100 µM (inactive)
KM-20L2
  GI50: > 100 µM (inactive)
M19-MEL
  GI50: > 100 µM (inactive)
SNB-78
  GI50: 39.9 µM (inactive)
LXFL 529
  GI50: 66.7 µM (inactive)
DMS-114
  GI50: 41.7 µM (inactive)

## COC(=O)CCCN(C)c1nc(N)n[nH]1
DLD-1
  GI50: > 100 µM (inactive)
KM-20L2
  GI50: > 100 µM (inactive)
M19-MEL
  GI50: > 100 µM (inactive)
SNB-78
  GI50: > 100 µM (inactive)
LXFL 529
  GI50: > 100 µM (inactive)
DMS-114
  GI50: > 100 µM (inactive)

## COc1ccc(C(NC(=O)C[C@@H](C(=O)N(C)C(C)C(=O)O)N(C)C(=O)[C@@H]2CCCN2C(=O)[C@H](C(C)C)N(C)C(=O)C(C(C)C)N(C)C(=O)[C@H](Cc2ccccc2)N(C)C(=O)C(NC(=O)OC(C)(C)C)C(C)C)c2ccc(OC)cc2)cc1 (stereo not given in full) (Boc-[ξV][NMeF][ξNMeV][NMeV]P[NMeD](X4)[ξNMeA]-OH)
DLD-1
  GI50: 18 µM (inactive)
XF498
  GI50: 15.8 µM (inactive)
KM-20L2
  GI50: 19.9 µM (inactive)
M19-MEL
  GI50: 16.9 µM (inactive)
SNB-78
  GI50: 15.8 µM (inactive)
LXFL 529
  GI50: 14.7 µM (inactive)
DMS-114
  GI50: 16.5 µM (inactive)
